These results are taken from ChEMBL document CHEMBL3507680, “University of Dundee, Gates Library screen for HepG2 cell viability”.

The nature of the data set: Human HepG2 cell viability assay in 384 well format. Format: toxicity, cell-based. Details: dose 125 nL, time 70.5 hour; concentration not given beside the values. Conditions: HepG2 cells, read-out: Inhibition.
With `CCCNC(=O)C(C)n1nc(-c2ccc(C)o2)cc(N)c1=O` (stereo not given), the cytotoxicity at 70.5 h was -1.77%.

Regarding `CCC(=O)N1CCC(c2nc(N3CCOCC3)ncc2S(C)(=O)=O)CC1`, the cytotoxicity at 70.5 h was -9.6%.

For `CC(C)(C)C(=O)N1CCC(c2noc(C3CCC(=O)N3)n2)CC1` (stereo not given), the cytotoxicity at 70.5 h is -6.7%.

Regarding `Cc1cc(Nc2nc(C)cc(C)n2)cc(C2CCCN2)n1` (stereo not given), the cytotoxicity at 70.5 h was -7.57%.

Consider `CS(=O)(=O)N[C@@H]1CN(Cc2ccccc2)C[C@H]1O`, for which the cytotoxicity at 70.5 h was -5.89%.

Regarding `Cc1cc(N(C)C)nc(C2COCCN2Cc2cc(C)on2)n1` (stereo not given), the cytotoxicity at 70.5 h was -7.49%.

On to `Cc1noc(C)c1CC(=O)N1CCC(c2ccn3nccc3n2)CC1`, for which the cytotoxicity at 70.5 h came to 0.22%.

On to `Cc1cn[nH]c1C1COCCN1C(=O)c1ccc2c(c1)CCCC2` (stereo not given), for which the cytotoxicity at 70.5 h is -3.65%.

Regarding `Cc1cc(NC2CC3(CCN(Cc4csc(C)n4)C3)C2)ncn1` (stereo not given), the cytotoxicity at 70.5 h is -9.59%.

Turning to `Cc1cc(N2CCCC(O)(CN(C)C(=O)CCN)C2)c2cnccc2n1` (stereo not given), the cytotoxicity at 70.5 h was found to be 26.9%.

On to `COc1ncc(CN2C[C@@H]3C[C@@H](O)CN3C[C@@H]2Cc2ccccc2)cn1`, for which the cytotoxicity at 70.5 h was found to be 18.8%.

`CC(C)C(=O)N1CCCC(Cc2ccccn2)C1` (stereo not given): the cytotoxicity at 70.5 h was -1.35%.

For the compound `Cc1noc(C)c1-c1nc(C2CCCN(CCC(N)=O)C2)ccc1CO` (stereo not given), the cytotoxicity at 70.5 h is -6.81%.

On to `CO[C@H]1CN(C(=O)c2cccc(C)n2)CC[C@@]12CCCO2`, for which the cytotoxicity at 70.5 h was -6.22%.

Take `CN(C)CC1(O)CCN(C(=O)Cc2ccc3ccccc3c2)C1` (stereo not given): the cytotoxicity at 70.5 h was -1.7%.

For the compound `Cc1nc(C)c(C(=O)N2CCc3nnc(C4CCCN4C)n3CC2)s1` (stereo not given), the cytotoxicity at 70.5 h is -3.4%.

`Cc1cccc(Nc2ccc(C3CCN(Cc4ncc[nH]4)CC3)nc2)n1`: the cytotoxicity at 70.5 h was determined as 0.422%.

As for `Cc1cnn(CC(=O)N2CCC(c3ccn4nccc4n3)CC2)c1`, the cytotoxicity at 70.5 h is -2.27%.

For `CN(CC1(O)CCN(c2ccnc3ccncc23)CC1)C(=O)CCN`, the cytotoxicity at 70.5 h was -6.66%.

Take `Cc1n[nH]c(C)c1-c1nccnc1CC1CCNC1` (stereo not given): the cytotoxicity at 70.5 h was -2.8%.

In the case of `CC(=O)N1CCOC(c2ccnc(N(C)C)n2)C1` (stereo not given), the cytotoxicity at 70.5 h was 1.91%.

As for `Cc1nccn1[C@@H]1CC[C@@H](NC(=O)Cn2c(C)nc3ccccc32)[C@H]1O`, the cytotoxicity at 70.5 h is 0.7%.

Turning to `CN1CCC(Cc2cncc(-c3ccccc3C(=O)O)n2)C1` (stereo not given), the cytotoxicity at 70.5 h is -6.47%.

On to `O=C(Cn1ccnc1)N1C[C@@H]2CC[C@H](Oc3ccc(Cl)cc3)[C@@H]2C1`, for which the cytotoxicity at 70.5 h is 0.299%.

As to `COc1ccc(CN(Cc2cn(C)nc2C)CC2CCCO2)c(OC)c1` (stereo not given), the cytotoxicity at 70.5 h was -2.41%.

Regarding `COCCN1C(=O)CO[C@H]2CN(Cc3cccc(OC)c3F)C[C@@H]21`, the cytotoxicity at 70.5 h was -4.24%.

Consider `O=C(COc1cccc(F)c1)N1CCCCC1c1ccn2ccnc2n1` (stereo not given), for which the cytotoxicity at 70.5 h was -9.3%.

In the case of `O=C(CCc1cccnc1)N1CCCCC1c1ccn2ccnc2n1` (stereo not given), the cytotoxicity at 70.5 h is -6.74%.

With `Cc1cncc(C(=O)N[C@@H]2CC[C@@H](N3CCOCC3)[C@@H]2O)c1`, the cytotoxicity at 70.5 h was -8.5%.

For `COc1ccc(CN2CC[C@H](NC(C)=O)[C@@H](O)CC2)c(F)c1`, the cytotoxicity at 70.5 h was -5.93%.

Consider `CC(=O)N1CCCC1c1cccc(Cc2ccccc2Cl)n1` (stereo not given), for which the cytotoxicity at 70.5 h stood at 0.0226%.

On to `NC(=O)C1(CCCc2ccccn2)CCCN(CCO)C1` (stereo not given), for which the cytotoxicity at 70.5 h is -4.87%.

In the case of `CN(C)Cc1ccnc(C2CN(Cc3nccs3)CCO2)n1` (stereo not given), the cytotoxicity at 70.5 h was found to be 1.69%.

Regarding `CC(=O)N1CCCC1c1cccc(Oc2ccccc2F)n1` (stereo not given), the cytotoxicity at 70.5 h is -4.13%.

Consider `CN(C)Cc1ccnc(C2CN(Cc3c(F)cccc3F)CCO2)n1` (stereo not given), for which the cytotoxicity at 70.5 h is -6.34%.

In the case of `NC(=O)CN1CCCC(c2cncc(Nc3ncccn3)n2)C1` (stereo not given), the cytotoxicity at 70.5 h is -6.48%.

Take `O=C(COc1ccccc1F)N1CCCCC1c1ccn2ccnc2n1` (stereo not given): the cytotoxicity at 70.5 h is -11.7%.

For the compound `CC(=O)NCC(=O)N1C[C@@H]2CC[C@H](Oc3ccccc3Cl)[C@@H]2C1`, the cytotoxicity at 70.5 h stood at 12.5%.

As for `CN(Cc1ccc(F)cc1)CC1(O)CCN(C(=O)c2ccn(C)n2)C1` (stereo not given), the cytotoxicity at 70.5 h was -6.54%.

For `CC(=O)N1CCCC(c2ccnc(Nc3cnccn3)n2)C1` (stereo not given), the cytotoxicity at 70.5 h was -7.2%.

With `Cc1nc(CCC(N)=O)cc(C2CCNCC2)n1`, the cytotoxicity at 70.5 h was determined as 18.8%.

For `Fc1ccc(Cc2cccc(C3CCN(C4CCOCC4)CC3)n2)cc1`, the cytotoxicity at 70.5 h turned out to be 0.432%.

In the case of `Cc1noc2nc(C3CCN(Cc4ccccn4)CC3)cc(C(F)F)c12`, the cytotoxicity at 70.5 h was -2.48%.

For the compound `Oc1nc(N2CCOCC2)nc2c1CCN(Cc1cccc(F)c1)CC2`, the cytotoxicity at 70.5 h was -5.57%.

As to `CC(C)n1ccnc1CN1CCOC(C)(C(=O)N2CCOCC2)C1` (stereo not given), the cytotoxicity at 70.5 h was -5.02%.

In the case of `NC(=O)C1(CCCc2ccccn2)CCCN(Cc2ccncc2)C1` (stereo not given), the cytotoxicity at 70.5 h was -2.02%.

On to `Oc1nc(N2CCOCC2)nc2c1CCN(Cc1ccc(F)cc1)CC2`, for which the cytotoxicity at 70.5 h was -2.02%.

Regarding `NC(=O)C1(CCCc2ccccn2)CCCN(Cc2ncc[nH]2)C1` (stereo not given), the cytotoxicity at 70.5 h is 1.81%.

On to `Cc1nc(NC2CCCC2)cc(C2CCN2C(=O)c2ccccn2)n1` (stereo not given), for which the cytotoxicity at 70.5 h was -4.92%.

Take `O=C(c1ccccc1F)N1CCOC(c2nc(-c3ncccn3)no2)C1` (stereo not given): the cytotoxicity at 70.5 h is -2.38%.

`Cc1ccc(C2CCCN(C(=O)c3cnn(C)c3)C2)nc1` (stereo not given): the cytotoxicity at 70.5 h is 24.3%.

Consider `CNC(=O)C1(c2cnccn2)CCCN1C(=O)c1ccccc1` (stereo not given), for which the cytotoxicity at 70.5 h was 17.8%.

Take `O=C(c1cc(C2CCCCN2C(=O)C2CCC2)n[nH]1)N1CCOCC1` (stereo not given): the cytotoxicity at 70.5 h is 18.8%.

As to `CNC(=O)C1(c2cnccn2)CCCN1C(=O)c1cccc(F)c1` (stereo not given), the cytotoxicity at 70.5 h worked out at 20.4%.

As to `O=C(c1cccnc1)N1CCOC(c2ccc(-c3cncnc3)cn2)C1` (stereo not given), the cytotoxicity at 70.5 h was -0.513%.

In the case of `O[C@@H]1CN(Cc2cccnc2)C[C@H]1Oc1ccccc1`, the cytotoxicity at 70.5 h was found to be 0.823%.

Consider `Cc1nn(C)c(C)c1CN1CCCC1c1nccc(CN(C)C)n1` (stereo not given), for which the cytotoxicity at 70.5 h was -0.0769%.

Regarding `O=C(c1cncs1)N1CCC(Cc2cnc3[nH]ccc3c2)CC1`, the cytotoxicity at 70.5 h was determined as 15.3%.

For the compound `Cc1cc(C2CCN(C(=O)c3cnn(C)c3)CC2)ccn1`, the cytotoxicity at 70.5 h is -5.33%.

As for `CC(C)N1CCC(Cc2cncc(-c3cccc(C(=O)O)c3)n2)C1` (stereo not given), the cytotoxicity at 70.5 h is -5.63%.

In the case of `CNC(=O)c1ccc(C2CN(C(=O)c3cnn(C)c3)CCO2)nc1` (stereo not given), the cytotoxicity at 70.5 h was -4.81%.

As to `Cn1cc(C(=O)N2CCCC(c3cc(O)n(C)n3)C2)cn1` (stereo not given), the cytotoxicity at 70.5 h is 7.43%.

Regarding `CC(=O)N1CCCCC1c1nc(C)cc(-c2ccccc2C(=O)O)n1` (stereo not given), the cytotoxicity at 70.5 h was -1.42%.

In the case of `CNC(=O)C1(c2cnccn2)CCCN1C(=O)c1ccccc1F` (stereo not given), the cytotoxicity at 70.5 h is -3.62%.

In the case of `COc1ccc(C(C)N(C)Cc2c(C3CC3)[nH]c3ncccc23)cc1` (stereo not given), the cytotoxicity at 70.5 h was -3.9%.

On to `O=C(c1ccnc(C2CCNCC2)c1)N1CCCOCC1`, for which the cytotoxicity at 70.5 h is -1.42%.

With `Fc1ccc(Cc2cnc(C3CCCN3)cn2)cc1` (stereo not given), the cytotoxicity at 70.5 h amounted to 16.8%.

Take `O=S(=O)(c1ccc(Cl)cc1)N1CCc2nc(C3CCNCC3)ncc2C1`: the cytotoxicity at 70.5 h was -4.46%.

On to `Cc1noc(C)c1S(=O)(=O)N1CCc2nc(C3CCNCC3)ncc2C1`, for which the cytotoxicity at 70.5 h is -6.62%.

Regarding `Cc1ccccc1OC1CCN(CC(=O)Nc2ccn(C)n2)CC1`, the cytotoxicity at 70.5 h was -7.79%.
